The experiment concerns Saccharomyces cerevisiae ABC16-Green Monster. Nature of the experiment: growth inhibition at single dose (up to 150 µM), below the 70% cut-off for dose-response; higher = more potent. The following applies: 18 h; 30 °C; YPD. In a few lines:
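The entry is percent growth inhibition of drug-sensitive S. cerevisiae ABC16-Green Monster cells. After overnight growth in YPD at 30 °C, cells were diluted to OD600 0.1–0.2 and exposed to each library compound at 150 µM in 200 µl per well, in biological duplicates with untreated cultures beside them, and OD600 was read at 0 h and after 18 h at 30 °C. Any compound under 70% in both replicates was not carried to dose-response.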

Turning to `Cc1ccc(S(=O)(=O)c2c(COC(=O)c3cccc(C)c3)c(-c3ccccc3)nn2C)cc1`, the “growth inhibition at single dose” value is < 70%.

For the molecule `c1ccc(Oc2ccc(-c3cc(N4CCNCC4)[nH]n3)cc2)cc1`, the “growth inhibition at single dose” value was < 70%.

In the case of `N#C/C(=N\Nc1cccc(Cl)c1)C(=O)c1cc(-c2ccccc2)c(C(F)(F)F)s1`, the “growth inhibition at single dose” value is < 70%.

Consider `Cc1ccc2c(C)nc(Nc3nc(C)cc(-c4ccccc4)n3)nc2c1`, for which the “growth inhibition at single dose” value was < 70%.

Consider `CNc1snc(C)c1C(=O)OCc1coc(-c2cccs2)n1`, for which the “growth inhibition at single dose” value is < 70%.

As for `CCCC(c1nnnn1C1CCCCC1)N1CCN(C(=O)c2ccco2)CC1` (centres undefined), the “growth inhibition at single dose” value was < 70%.

Regarding `CC1CCCN(C(=O)C(C)Nc2cc(Cl)ccc2N2CCOCC2)C1` (centres undefined), the “growth inhibition at single dose” value was < 70%.

Consider `Cc1nn2c(O)c3c(nc2c1-c1ccc(F)cc1)CCCC3`, for which the “growth inhibition at single dose” value is < 70%.

Regarding `OC1=C2C(=Nc3ccccc3SC2c2ccc(Br)cc2)c2ccccc21` (centres undefined), the “growth inhibition at single dose” value is < 70%.

`O=C(NC1CCN(c2nccc(C(F)(F)F)n2)CC1)c1cccs1`: the “growth inhibition at single dose” value was < 70%.

On to `CCOc1ccc(-c2nc(NC(=O)CS(=O)(=O)c3ccccc3)sc2C)cc1`, for which the “growth inhibition at single dose” value is < 70%.

As for `O=C(Nc1ccc(Cl)cc1C(=O)Nc1ccncc1)c1ccc(Cl)cc1Cl`, the “growth inhibition at single dose” value was < 70%.

As to `COc1nc(Nc2ccc(C(C)C)cc2)nc(OC)n1`, the “growth inhibition at single dose” value is < 70%.

Consider `COc1ccc(CNC(=O)c2cc3c(=O)n4ccccc4nc3n(CCc3ccccc3)c2=N)cc1`, for which the “growth inhibition at single dose” value is < 70%.

As to `Cc1ccc(S(=O)(=O)N2CCN(C(=O)c3cc(-c4ccccc4)[nH]n3)CC2)cc1`, the “growth inhibition at single dose” value was < 70%.

In the case of `Cc1ccc2cc(C3NC(=O)c4ccccc4N3)c(Cl)nc2c1` (centres undefined), the “growth inhibition at single dose” value is < 70%.

Regarding `Cc1ncc(-c2ccnc(Nc3ccc(S(C)(=O)=O)cc3)n2)n1C(C)C`, the “growth inhibition at single dose” value is < 70%.

For `CCC(Sc1nc2ccccc2o1)C(=O)Nc1nnc(C)s1` (centres undefined), the “growth inhibition at single dose” value was < 70%.

Consider `CO[C@@H]1CN(c2ccc(C#CC3(O)CN4CCC3CC4)c(Cc3ccccc3)n2)C[C@H]1O` (some centres undefined), for which the “growth inhibition at single dose” value is < 70%.

Take `Cc1ccc(NC(=O)CC2COc3ccccc3O2)cc1Cl` (centres undefined): the “growth inhibition at single dose” value is < 70%.

On to `CN(C)CCNC(=O)N1CCCN(c2ncnc3cc(-c4ccccc4)sc23)CC1`, for which the “growth inhibition at single dose” value is < 70%.

Turning to `COc1ccc(C2=NN(C3CCCCCC3)C(=O)[C@@H]3CC=CC[C@H]23)cc1OCCCCOc1ccc(-c2nn[nH]n2)cc1`, the “growth inhibition at single dose” value is < 70%.

Take `NS(=O)(=O)c1cccc(-c2ccc3ncc(N4CCOCC4)nc3c2)c1`: the “growth inhibition at single dose” value was < 70%.

With `CCOc1ccc(CCNC(=O)c2cccs2)cc1OCC`, the “growth inhibition at single dose” value was < 70%.

As to `O=C(Nc1cccnc1)c1c(O)c2cccc3c2n(c1=O)CC3`, the “growth inhibition at single dose” value is < 70%.

As for `COc1ccccc1CNC(=O)CCn1c(=O)[nH]c2ccsc2c1=O`, the “growth inhibition at single dose” value was < 70%.

As for `CCOC(=O)c1cn(CC)c2cc(N3CCCCC3)c(F)cc2c1=O`, the “growth inhibition at single dose” value is < 70%.

As for `Cn1ncc(C#N)c1NC(=O)c1cccc(Oc2ccccc2)c1`, the “growth inhibition at single dose” value was < 70%.

Take `CCCn1nc(C(=O)NCCc2ccc(-n3cccn3)cc2)c2ccccc2c1=O`: the “growth inhibition at single dose” value is < 70%.

In the case of `O=C(c1cc(-c2ccccc2)n[nH]1)N1CCN(S(=O)(=O)c2ccccc2)CC1`, the “growth inhibition at single dose” value is < 70%.

On to `COc1cc2ncnc(NC3CCN(Cc4ccccc4)CC3)c2cc1OC`, for which the “growth inhibition at single dose” value is < 70%.

`Cc1nc(Sc2ncnc3sc4c(c23)CCC4)sc1CC(N)=O`: the “growth inhibition at single dose” value was < 70%.

For the molecule `O=C(Nc1ccc(CN2CCOCC2)cc1)c1ccc(-c2ccc(Br)cc2)o1`, the “growth inhibition at single dose” value is < 70%.

Regarding `Clc1ccc(-n2cc(COc3ccnc4ccccc34)nn2)cc1`, the “growth inhibition at single dose” value was < 70%.

Source of the values: the supplement of paper PMC8837787.
